Test [1] deals with Human immunodeficiency virus type 1 reverse transcriptase (Human immunodeficiency virus 1) (UniProt Q72547). Put plainly: Inhibition of Human immunodeficiency virus 1 RT assessed at 20 ug after 1 hr by spectrophotometric analysis.
For another test, the system named is Candida albicans. Kind of test: Antifungal activity against Candida albicans. Type of test: functional, organism-based.
The next test relates to Penicillium chrysogenum. Kind of test: Antifungal activity against Penicillium chrysogenum. Type of test: functional, organism-based.
Another test relates to Bacillus subtilis. Put plainly: Antibacterial activity against Bacillus subtilis. Type of test: functional, organism-based.
Another test deals with Aspergillus niger. Put plainly: Antifungal activity against Aspergillus niger. Type of test: functional, organism-based.
Another test has as its system Aspergillus fumigatus. Put plainly: Antifungal activity against Aspergillus fumigatus. Type of test: functional, organism-based.
The subject of the next test is Salmonella typhi. Put plainly: Antibacterial activity against Salmonella enterica subsp. enterica serovar Typhi. Type of test: functional, organism-based.

Activity calls are given as the source filed them. No cut-off for these calls is given here.

As a reminder, the inhibition is the relative decrease from the control value, in per cent. A low value points to a weak effect.

In test [1], `CCOC(=O)/C(O)=C/C(=O)c1cn(Cc2ccc(Cl)cc2Cl)c2cc(OC)cc(OC)c12` registered an inhibition of 87.6%. The result in the test with Candida albicans, in the test on Penicillium chrysogenum and with Bacillus subtilis was Active.

Compound `COc1cc2c(C(=O)/C=C(\O)C(=O)O)cn(Cc3ccc(Cl)cc3Cl)c2cc1OC` registered an inhibition in test [1] of 78.6%.

In test [1], `COc1cc(OC)c2c(C(=O)/C=C(\O)C(=O)O)cn(Cc3ccc(Cl)cc3Cl)c2c1` had an inhibition of 79.2%.

With `CCOC(=O)/C(O)=C/C(=O)c1cn(Cc2ccc(Cl)cc2Cl)c2ccc(OC)c(OC)c12`, the outcome in the test with Aspergillus niger, in the test on Penicillium chrysogenum and with Bacillus subtilis was Active. Moreover, in test [1], the inhibition amounted to 87.7%.

With `CC(=O)N1CCN(c2ccc(OCC3COC(Cn4ccnc4)(c4ccc(Cl)cc4Cl)O3)cc2)CC1` (centres undefined), the result in the test on Aspergillus fumigatus and in the test on Candida albicans was Active.

Consider `CCOC(=O)/C(O)=C/C(=O)c1cn(Cc2ccc(Cl)cc2Cl)c2cc(OC)c(OC)cc12`, for which the inhibition in test [1] stood at 80.9%. Further, the result with Aspergillus fumigatus, in the test on Candida albicans and with Bacillus subtilis was Active.

In turn, `COc1ccc(OC)c2c1c(C(=O)/C=C(\O)C(=O)O)cn2Cc1ccc(Cl)cc1Cl` registered an inhibition in test [1] of 82.8%.

For the compound `COc1ccc2c(c(C(=O)/C=C(\O)C(=O)O)cn2Cc2ccc(Cl)cc2Cl)c1OC`, in test [1], the inhibition was found to be 78.2%.

In the case of `CCOC(=O)/C(O)=C/C(=O)c1cn(Cc2ccc(Cl)cc2Cl)c2c(OC)ccc(OC)c12`, the result in the test on Aspergillus niger, in the test on Salmonella typhi, in the test on Aspergillus fumigatus, in the test on Candida albicans and in the test on Penicillium chrysogenum was Active. The same compound gave an inhibition in test [1] of 86.5%.

The values above are taken from ChEMBL document CHEMBL3045871, “Synthesis, biological screening and ADME prediction of benzylindole derivatives as novel anti-HIV-1, anti-fungal and anti-bacterial agents” (Med Chem Res, 2013).
